Experimental data: US20240352418A1, “METHOD FOR PRODUCING MULTINUCLEATED MEGAKARYOCYTE WITH ENHANCED PLATELET PRODUCTION CAPABILITY, METHOD FOR PRODUCING PLATELETS, METHOD FOR PRODUCING PLATELET PREPARATION, AND METHOD FOR PRODUCING BLOOD PREPARATION” (Megakaryon Corporation, priority 2021, published 2024)

Assays:
[1] = tested on: multinucleated megakaryocytes induced from immortalized megakaryocyte cell line (MKCL); assay: Size and expansion of multinucleated megakaryocytes after BSA fractionation (FSC, phase-contrast microscope); format: cell-based, human; conditions: F1 fraction, phase-contrast images, FIG. 4; AZ191 1 μmol/L and blebbistatin 10 μmol/L added together to GNF351 + Y-39983 (1B vs 1A); harmine 5 μmol/L added on top (Example 1 vs 1B)
From the text: Multinucleation was induced by culturing the immortalized megakaryocyte cell line obtained in Example 1(1) in the same manner as in Example 1(2). The obtained multinucleated megakaryocytes were fractionated according to the size of multinucleated megakaryocytes using bovine serum albumin. Specifically, a three-way stopcock was attached to a 50-ml injection syringe with a plunger removed, and the syringe was fixed with a clamp with a leading end of the tube facing downward. A 30% (w/v) albumin solution (derived from bovine serum, fatty acid free, Fujifilm Wako Pure Chemical Corporation #017-22231) was diluted with 1×HBSS (ThermoFisher #14175095) to prepare 2%, 4%, and 16% BSA solutions, and 16% (10 ml), 4% (4 ml), 2% (4 ml), and 0% (2 ml) solutions were layered in the above syringe in the stated order. A cell suspension containing 75×10^5 multinucleated megakaryocyte cells prepared using 2 ml of HBSS was then applied and allowed to stand for 50 minutes, so that the cells were settled under natural gravity. Then, the three-way stopcock was loosened, and the cells were collected by dropping droplets thereof. As a result, the cell population containing the multinucleated megakaryocytes was fractionated into fractions 1 to 4 (F1 to F4). Regarding the multinucleated megakaryocytes of each fraction, the number of sets of chromosomes (N) was analyzed in the same manner as in Example 1(3) above (Example 1). […]
After the fractionation, platelets were produced from multinucleated megakaryocytes by culturing the multinucleated megakaryocytes in the production culture medium excluding DOX. […] After the culturing, regarding the cell suspension containing platelets, the amount of platelets produced per megakaryocyte was calculated in the same manner as in Example 1(4).

[2] = tested on: immortalized megakaryocyte cell line (MKCL); assay: Degree of multinucleation (number of sets of chromosomes, PI staining, flow cytometer); format: cell-based, human; conditions: cultured 3 days with DOX; FIG. 1; harmine alone 10 μmol/L in growth medium (control 2); Example 1 = multinucleation culture medium; vs control 1 (growth medium)
Experimental: Next, multinucleation of immortalized megakaryocytes was induced by culturing, in a culture medium to which an AhR inhibitor, a ROCK inhibitor, a DYRK inhibitor, a myosin 2 inhibitor, and harmine were added in addition to DOX. Specifically, the immortalized megakaryocyte cell line obtained in Example 1(1) was suspended in a multinucleation culture medium below, to 3.0×10^5 cells/ml. Then, the cells were seeded on a 6-well dish at 2 mL/well, or on a 125-mL Erlenmeyer Flask at 25 mL/flask, and cultured while being shaken at 100 rpm for 3 days. The culture conditions were set to 37° C. and 5% CO2. […]
The cell suspension obtained after the culturing was collected, and the number of sets of chromosomes in the cell suspension and the size of the cells were measured using a flow cytometer. […] As for the obtained results, the number of sets of chromosomes (N) contained in megakaryocytes and the size of the cells was analyzed based on FSC and PI staining intensity (Example 1). […]
The nuclear phases of the multinucleated megakaryocytes obtained using the method for producing multinucleated megakaryocytes according to the present invention were examined. […] As for the obtained results, the number of sets of chromosomes (N) contained in megakaryocytes and the size of the cells was analyzed based on FSC and PI staining intensity. […]

| Compound | expansion of multinucleated megakaryocytes [1] | degree of multinucleation (nuclear phases detected) [2] |
| --- | --- | --- |
| Cc1ccc2c(c1)C(=O)C1(O)CCN(c3ccccc3)C1=N2 (stereo not shown) [blebbistatin, 3a-hydroxy-6-methyl-1-phenyl-2,3-dihydropyrrolo[2,3-b]quinolin-4-one] | facilitated expansion of multinucleated megakaryocytes |  |
| COc1cc(N2CCN(C)CC2)ccc1Nc1nccc(-c2cn(C)c3cnccc23)n1 [AZ191, N-[2-methoxy-4-(4-methyl-1-piperazinyl)phenyl]-4-(1-methyl-1H-pyrrolo [2,3-c]pyridin-3-yl)-2-pyrimidinamine] | facilitated expansion of multinucleated megakaryocytes |  |
| COc1ccc2c(c1)[nH]c1c(C)nccc12 [harmine, 7-methoxy-1-methyl-9H-pyrido[3,4-b]indole] | no effect | 32N multinucleated megakaryocytes were slightly detected |
